Data: ChEMBL document CHEMBL6177985, “Discovery of Novel Cyclic Peptides as SMAD2-SMAD4 Interaction Inhibitors for the Treatment of Hepatic Fibrosis” (J Med Chem, 2025)
Activity calls are given as the source filed them. The rule behind the calls is not given here.

Tests used:
LX-2 [1] = test: Antifibrotic activity against TGF-beta1 stimulated human LX-2 cells assessed as reduction in COL1A1 expression at 100 uM incubated for 24 hrs by Western blotting analysis; type: functional, cell-based
LX-2 [2] = test: Antifibrotic activity against TGF-beta1 stimulated human LX-2 cells assessed as reduction in alpha-SMA expression at 100 uM incubated for 24 hrs by Western blotting analysis; type: functional, cell-based
Homo sapiens = organism: Homo sapiens; test: Inhibition of TGF-beta induced his tagged human SMAD2/human SMAD4 interaction at 100 uM incubated for 1 hr followed by anti-His-HRP addition and measured after 1 hr by blocking assay relative to control; settings: time 2.0 hrs
LX-2 [3] = test: Downregulation of TGF-beta induced SMAD2 phosphorylation level in human LX-2 cells at 100 uM by Immunoblot analysis; type: functional, cell-based
LX-2 [4] = test: Downregulation of TGF-beta induced P65 phosphorylation level in human LX-2 cells at 100 uM by Immunoblot analysis; type: functional, cell-based
LX-2 [5] = test: Downregulation of TGF-beta induced alpha-SMA level in human LX-2 cells at 100 uM by Immunoblot analysis; type: functional, cell-based
LX-2 [6] = test: Downregulation of TGF-beta induced COL1A1 level in human LX-2 cells at 100 uM by Immunoblot analysis; type: functional, cell-based
LX-2 [7] = test: Inhibition of TGF-beta induced SMAD3 phosphorylation level in human LX-2 cells at 100 uM by Western blot analysis; type: functional, cell-based
LX-2 [8] = test: Inhibition of TGF-beta induced SMAD1/5/8 phosphorylation level in human LX-2 cells at 100 uM by Western blot analysis; type: functional, cell-based
LX-2 [9] = test: Inhibition of TGF-beta induced SMAD2 phosphorylation level in human LX-2 cells by Western blot analysis; type: functional, cell-based; settings: dose 25-100 µM
LX-2 [10] = test: Inhibition of HSC activation in TGFbeta-induced human LX-2 cells assessed as reduction in alpha-SMA by Western blot analysis; type: functional, cell-based; settings: dose 25-100 µM
LX-2 [11] = test: Inhibition of HSC activation in TGFbeta-induced human LX-2 cells assessed as reduction in COL1A1 by Western blot analysis; type: functional, cell-based; settings: dose 25-100 µM
LX-2 [12] = test: Inhibition of TGF-beta induced SMAD2 phosphorylation level in human LX-2 cells at 100 uM by Western blot analysis; type: functional, cell-based
LX-2 [13] = test: Inhibition of HSC activation in TGFbeta-induced human LX-2 cells assessed as reduction in alpha-SMA at 100 uM by Western blot analysis; type: functional, cell-based
LX-2 [14] = test: Inhibition of HSC activation in TGFbeta-induced human LX-2 cells assessed as reduction in COL1A1 at 100 uM by Western blot analysis; type: functional, cell-based
LX-2 [15] = test: Inhibition of SMAD2 phosphorylation level in TGF-beta and TMSO induced human LX-2 cells at 300 uM by immunoblot analysis; type: functional, cell-based
Mus musculus [16] = test: Anti-fibrotic activity against CCl4-induced liver fibrosis male C57BL/6J mouse model assessed as effect on SMAD3 phosphorylation in liver at 400 microg/kg, ip measured for 3 weeks by Western blot analysis; type: functional, organism-based; settings: dose 400.0 µg/kg
Mus musculus [17] = test: Anti-fibrotic activity against CCl4-induced liver fibrosis male C57BL/6J mouse model assessed as reduction in COL1A1 expression in liver at 400 microg/kg, ip measured for 3 weeks by Western blot analysis; type: functional, organism-based; settings: dose 400.0 µg/kg
Mus musculus [18] = test: Anti-fibrotic activity against CCl4-induced liver fibrosis male C57BL/6J mouse model assessed as reduction in alpha-SMA expression in liver at 400 microg/kg, ip measured for 3 weeks by Western blot analysis; type: functional, organism-based; settings: dose 400.0 µg/kg
Mus musculus [19] = test: Anti-fibrotic activity against CCl4-induced liver fibrosis male C57BL/6J mouse model assessed as reduction in P65 phosphorylation level in liver at 400 microg/kg, ip measured for 3 weeks by Western blot analysis; type: functional, organism-based; settings: dose 400.0 µg/kg
Mus musculus [20] = test: Anti-fibrotic activity against CCl4-induced liver fibrosis male C57BL/6J mouse model assessed as reduction in SMAD2 level in liver at 400 microg/kg, ip measured for 3 weeks by Western blot analysis; type: functional, organism-based; settings: dose 400.0 µg/kg
Mus musculus [21] = test: Anti-fibrotic activity against CCl4-induced liver fibrosis male C57BL/6J mouse model assessed as reduction of AST level at 400 microg/kg, ip measured for 3 weeks by biochemical analysis; type: functional, organism-based; settings: dose 400.0 µg/kg
Mus musculus [22] = test: Anti-fibrotic activity against CCl4-induced liver fibrosis male C57BL/6J mouse model assessed as reduction of ALT level at 400 microg/kg, ip measured for 3 weeks by biochemical analysis; type: functional, organism-based; settings: dose 400.0 µg/kg
Mus musculus [23] = test: Anti-fibrotic activity against CCl4-induced liver fibrosis male C57BL/6J mouse model assessed as alleviation of COL1A1 level at 400 microg/kg, ip measured for 3 weeks by immunohistochemical staining based analysis; type: functional, organism-based; settings: dose 400.0 µg/kg
Mus musculus [24] = test: Anti-fibrotic activity against CCl4-induced liver fibrosis male C57BL/6J mouse model assessed as alleviation of alpha SMA level at 400 microg/kg, ip measured for 3 weeks by immunohistochemical staining based analysis; type: functional, organism-based; settings: dose 400.0 µg/kg
Mus musculus [25] = test: Anti-fibrotic activity against CCl4-induced liver fibrosis male C57BL/6J mouse model assessed as decrease in collagen deposition at 400 microg/kg, ip measured for 3 weeks; type: functional, organism-based; settings: dose 400.0 µg/kg
Mus musculus [26] = test: Anti-fibrotic activity against CCl4-induced liver fibrosis male C57BL/6J mouse model assessed as decrease in inflammatory infiltration at 400 microg/kg, ip measured for 3 weeks; type: functional, organism-based; settings: dose 400.0 µg/kg
[27] = Stability in rat serum measured up to 48 hrs by LC-MS/MS analysis; type: ADME, cell-free
Mus musculus [28] = organism: Mus musculus; test: Effect on gene expression in CCl4-induced male C57BL/6J mouse assessed as change in genes associated with biological process in liver tissue by RT-PCR analysis; type: functional, organism-based
Mus musculus [29] = organism: Mus musculus; test: Effect on gene expression in CCl4-induced male C57BL/6J mouse assessed as change in genes associated with cellular component in liver tissue by RT-PCR analysis; type: functional, organism-based
Mus musculus [30] = organism: Mus musculus; test: Effect on gene expression in CCl4-induced male C57BL/6J mouse assessed as change in genes associated with molecular function in liver tissue by RT-PCR analysis; type: functional, organism-based
Mus musculus [31] = organism: Mus musculus; test: Effect on gene expression in CCl4-induced male C57BL/6J mouse assessed as upregulation of genes associated with inflammatory response in liver tissue by RT-PCR analysis; type: functional, organism-based
Mus musculus [32] = organism: Mus musculus; test: Effect on gene expression in CCl4-induced male C57BL/6J mouse assessed as upregulation of genes associated with collagen deposition in liver tissue by RT-PCR analysis; type: functional, organism-based
Mus musculus [33] = test: Anti-fibrotic activity against CCl4-induced liver fibrosis male C57BL/6J mouse model assessed as effect on SMAD1/5/8 phosphorylation in liver at 400 microg/kg, ip measured for 3 weeks by Western blot analysis; type: functional, organism-based; settings: dose 400.0 µg/kg

Q: With `C[C@@H]1NC(=O)[C@@H]2CCCN2C(=O)[C@H](CCCNC(=N)N)NC(=O)[C@H]([C@@H](C)O)NC(=O)[C@H](CO)NC(=O)[C@H]([C@@H](C)O)NC(=O)[C@H](CCC(=O)O)NC(=O)[C@H](Cc2c[nH]c3ccccc23)NC(=O)[C@@H](Cc2ccccc2)NC(=O)[C@H](CO)NC1=O` as the molecule, how does the Activity (LX-2 [1]) read?
A: Active

Q: What about the Activity (LX-2 [2]) of the same molecule?
A: Active

Q: What about the inhibition (Homo sapiens) of the same molecule?
A: 85.6%

Q: What about the Activity (LX-2 [3]) of the same molecule?
A: Active

Q: What about the Activity (LX-2 [4]) of the same molecule?
A: Active

Q: And the Activity (LX-2 [5])?
A: Active

Q: What about the Activity (LX-2 [6]) of the same molecule?
A: Active

Q: What about the inhibition (LX-2 [7]) of the same molecule?
A: inactive

Q: And the inhibition (LX-2 [8])?
A: inactive

Q: What about the inhibition (LX-2 [9]) of the same molecule?
A: Dose-dependent-effect

Q: What about the inhibition (LX-2 [10]) of the same molecule?
A: Dose-dependent-effect

Q: And the inhibition (LX-2 [11])?
A: Dose-dependent-effect

Q: And the inhibition (LX-2 [12])?
A: Active

Q: What about the inhibition (LX-2 [13]) of the same molecule?
A: Active

Q: What about the inhibition (LX-2 [14]) of the same molecule?
A: Active

Q: And the inhibition (LX-2 [15])?
A: inactive

Q: What about the Activity (Mus musculus [16]) of the same molecule?
A: inactive

Q: And the Activity (Mus musculus [17])?
A: Active; Compound Showed Superior Effect Than M10

Q: And the Activity (Mus musculus [18])?
A: Active; Compound Showed Superior Effect Than M10

Q: What about the Activity (Mus musculus [19]) of the same molecule?
A: Active; Compound Showed Superior Effect Than M10

Q: And the Activity (Mus musculus [20])?
A: Active; Compound Showed Superior Effect Than M10

Q: What about the Activity (Mus musculus [21]) of the same molecule?
A: Active

Q: And the Activity (Mus musculus [22])?
A: Active

Q: And the Activity (Mus musculus [23])?
A: Active

Q: What about the Activity (Mus musculus [24]) of the same molecule?
A: Active

Q: And the Activity (Mus musculus [25])?
A: Active; Compound Showed Higher Efficacy Than M10

Q: What about the Activity (Mus musculus [26]) of the same molecule?
A: Active; Compound Showed Higher Efficacy Than M10

Q: And the Stability [27]?
A: Stable

Q: What about the Activity (Mus musculus [28]) of the same molecule?
A: Active

Q: What about the Activity (Mus musculus [29]) of the same molecule?
A: Active

Q: And the Activity (Mus musculus [30])?
A: Active

Q: And the Activity (Mus musculus [31])?
A: Active

Q: What about the Activity (Mus musculus [32]) of the same molecule?
A: Active

Q: What about the Activity (Mus musculus [33]) of the same molecule?
A: inactive
